The values that follow come from patent publication US20070191333A1, “Antibacterial agents” (Warner Lambert Company LLC, priority 2003, published 2007).

≈ marks a conversion by molar mass, not a printed value.

What all share (format): cell-based
In one experiment the test system is E. faecalis MGH-2. In words: Antibacterial microtitration MIC, E. faecalis MGH-2. The note with it: strain MGH-2; for MIC: Enterococcus faecalis, MGH2, Gram Positive Bacteria, read-out: Minimum Inhibitory Concentrations E. faecalis MGH-2; for Minimum Inhibitory Concentrations E. faecalis MGH-2: Gram Positive Bacteria. The protocol:
(§1) Test A—Antibacterial Assays The compounds of the present invention were tested against an assortment of Gram-negative and Gram-positive organisms using standard microtitration techniques (Cohen et. al., Antimicrob., 1985; 28:766; Heifetz, et. al., Antimicrob., 1974; 6:124).

In another experiment the test system is S. pneumo SV-1. In words: Antibacterial microtitration MIC, S. pneumo SV-1. The conditions noted are these: Gram Positive Bacteria, strain SV-1; for MIC: read-out: Minimum Inhibitory Concentrations S. pneumo SV-1. The protocol: as §1
The test system of a further experiment is S. aureus UC-76. In words: Antibacterial microtitration MIC, S. aureus UC-76. The conditions noted are these: strain UC-76; for MIC: Staphylococcus aureus, UC76, Gram Positive Bacteria, read-out: Minimum Inhibitory Concentrations S. aureus UC-76; for Minimum Inhibitory Concentrations S. aureus UC-76: Gram Positive Bacteria. As for the experimental part:
as §1

Another experiment relates to S pyogenes C203. The experiment can be described thus: Antibacterial microtitration MIC, S pyogenes C203. The conditions noted are these: Gram Positive Bacteria, strain C203; for MIC: read-out: Minimum Inhibitory Concentrations S pyogenes C203. As for the experimental part:
as §1

The next experiment relates to H. influenzae HI-3542. The experiment can be described thus: Antibacterial microtitration MIC, H. influenzae HI-3542. The note with it: Haemophilus influenzae, HI3542, Gram Negative Bacteria; strain HI-3542; read-out: Minimum Inhibitory Concentrations H. influenzae HI-3542. As for the experimental part: as §1
In a further experiment the test system is M. catarrhalis BC-3531. The experiment can be described thus: Antibacterial microtitration MIC, M. catarrhalis BC-3531. The conditions noted are these: Moraxella catarrhalis, BC3531, Gram Negative Bacteria; strain BC-3531; read-out: Minimum Inhibitory Concentrations M. catarrhalis BC-3531. The protocol:
as §1

The subject of a further experiment is E. coli 2026. The experiment can be described thus: Antibacterial microtitration MIC, E. coli 2026. The note with it: Escherichia coli, 2026, Gram Negative Bacteria; strain 2026; read-out: Minimum Inhibitory Concentrations E. coli 2026. As for the experimental part:
as §1

As to `Cc1c(N2CC[C@H]([C@H](N)CC#N)C2)c(F)cc2c(=O)n(N)c(=O)n(C3CC3)c12` (racemic) [drawing 406], the MIC in the experiment with E. faecalis MGH-2 was 4 µg/mL (≈ 10.4 µM); with S. pneumo SV-1, 0.5 µg/mL (≈ 1.29 µM); in the experiment with S. aureus UC-76, 1 µg/mL (≈ 2.59 µM); in the experiment with S pyogenes C203, 0.5 µg/mL (≈ 1.29 µM).
`Cc1c(N2C[C@@H](CNCCC#N)[C@H](C)C2)c(F)cc2c(=O)n(N)c(=O)n(C3CC3)c12` (single isomer, unassigned): the MIC in the experiment with E. faecalis MGH-2 is 0.5 µg/mL (≈ 1.21 µM); with S. pneumo SV-1 it was 0.06 µg/mL (≈ 0.145 µM); with S. aureus UC-76 it was 0.25 µg/mL (≈ 0.603 µM); with S pyogenes C203, 0.06 µg/mL (≈ 0.145 µM).
As for `Cc1c(N2CC[C@@H]([C@@H](N)CC#N)C2)c(F)cc2c(=O)n(N)c(=O)n(C3CC3)c12` (single isomer, unassigned) [drawing 407], the MIC in the experiment on E. faecalis MGH-2 was 0.25 µg/mL (≈ 0.647 µM); in the experiment on S. pneumo SV-1, 0.06 µg/mL (≈ 0.155 µM); with S. aureus UC-76, 0.125 µg/mL (≈ 0.323 µM); in the experiment with S pyogenes C203 it was 0.03 µg/mL (≈ 0.0776 µM).
On to `Cc1c(N2C[C@H](CNCCC#N)[C@@H](F)C2)c(F)cc2c(=O)n(N)c(=O)n(C3CC3)c12` (racemic) [drawing 414], for which the MIC with E. faecalis MGH-2 came out at 4 µg/mL (≈ 9.56 µM); with S. pneumo SV-1, 1 µg/mL (≈ 2.39 µM); in the experiment with S. aureus UC-76 it was 2 µg/mL (≈ 4.78 µM); with S pyogenes C203, 1 µg/mL (≈ 2.39 µM).
Consider `COc1c(N2CC[C@@H]([C@H](C)NCCC#N)C2)c(F)cc2c(=O)n(N)c(=O)n(C3CC3)c12` (single isomer, unassigned) [drawing 417], for which the MIC in the experiment with E. faecalis MGH-2 was 1 µg/mL (≈ 2.32 µM); in the experiment with S. pneumo SV-1, 0.125 µg/mL (≈ 0.29 µM); with S. aureus UC-76, 0.25 µg/mL (≈ 0.581 µM); in the experiment with S pyogenes C203 it was 0.125 µg/mL (≈ 0.29 µM).
Regarding `Cc1c(N2CCC(C(N)C(C)(C)C#N)C2)c(F)cc2c(=O)n(N)c(=O)n(C3CC3)c12` (centres unmarked) [drawing 419], the MIC in the experiment with E. faecalis MGH-2 amounted to 32 µg/mL (≈ 77.2 µM); in the experiment with S. aureus UC-76 it was 12 µg/mL (≈ 29 µM); with S pyogenes C203, 32 µg/mL (≈ 77.2 µM). For the same compound, in the experiment with S. pneumo SV-1, the “Minimum Inhibitory Concentrations S. pneumo SV-1” value stood at 32 µg/mL.
For `Cc1c(N2CC[C@@H]([C@@H](N)CC#N)C2)c(F)cc2c(=O)[nH]c(=O)n(C3CC3)c12` (single isomer, unassigned) [drawing 409], the “Minimum Inhibitory Concentrations E. faecalis MGH-2” value in the experiment on E. faecalis MGH-2 came out at 1 µg/mL. The “Minimum Inhibitory Concentrations S. pneumo SV-1” value in the experiment with S. pneumo SV-1 amounted to 0.125 µg/mL. Also, in the experiment with S. aureus UC-76, the “Minimum Inhibitory Concentrations S. aureus UC-76” value was determined as 0.5 µg/mL. Moreover, the “Minimum Inhibitory Concentrations S pyogenes C203” value in the experiment with S pyogenes C203 worked out at 0.25 µg/mL.
Take `Cc1c(N2CC[C@@H]([C@H](C)NCCC#N)C2)c(F)cc2c(=O)n(N)c(=O)n(C3CC3)c12` (single isomer, unassigned) [drawing 411]: the MIC with E. faecalis MGH-2 amounted to 0.125 µg/mL (≈ 0.302 µM); in the experiment with S. pneumo SV-1, 0.015 µg/mL (≈ 0.0362 µM); in the experiment on S. aureus UC-76, 0.06 µg/mL (≈ 0.145 µM); in the experiment on S pyogenes C203, 0.03 µg/mL (≈ 0.0724 µM).
For `Cc1c(N2CCC(C(N)C(C)(C)C#N)C2)c(F)cc2c(=O)n(N)c(=O)n(C3CC3)c12` (centres unmarked) [drawing 420], the “Minimum Inhibitory Concentrations E. faecalis MGH-2” value in the experiment with E. faecalis MGH-2 is 16 µg/mL. The “Minimum Inhibitory Concentrations S. pneumo SV-1” value in the experiment with S. pneumo SV-1 stood at 8 µg/mL. Further, the “Minimum Inhibitory Concentrations S. aureus UC-76” value in the experiment on S. aureus UC-76 came to 8 µg/mL. The “Minimum Inhibitory Concentrations S pyogenes C203” value in the experiment with S pyogenes C203 amounted to 16 µg/mL.
As to `COc1c(N2CCC(C(N)CC#N)C2)c(F)cc2c(=O)n(N)c(=O)n(C3CC3)c12` (centres unmarked) [drawing 410], the MIC is 2 µg/mL (≈ 4.97 µM) in the experiment on E. faecalis MGH-2, 0.5 µg/mL (≈ 1.24 µM) in the experiment on S. pneumo SV-1, 2 µg/mL (≈ 4.97 µM) with S. aureus UC-76 and 0.5 µg/mL (≈ 1.24 µM) in the experiment with S pyogenes C203.
As to `Cc1c(N2C[C@H](CNCCC#N)[C@@H](C)C2)c(F)cc2c(=O)n(N)c(=O)n(C3CC3)c12` (single isomer, unassigned), the MIC in the experiment with E. faecalis MGH-2 is 0.5 µg/mL (≈ 1.21 µM); with S. pneumo SV-1, 0.125 µg/mL (≈ 0.302 µM); with S. aureus UC-76, 0.25 µg/mL (≈ 0.603 µM); with S pyogenes C203, 0.125 µg/mL (≈ 0.302 µM).
For the compound `COc1c(N2CC[C@@H]([C@H](C)NCCC#N)C2)c(F)cc2c(=O)[nH]c(=O)n(C3CC3)c12` (single isomer, unassigned) [drawing 418], the MIC amounted to 2 µg/mL (≈ 4.81 µM) in the experiment on E. faecalis MGH-2, 0.25 µg/mL (≈ 0.602 µM) with S. pneumo SV-1, 1 µg/mL (≈ 2.41 µM) in the experiment with S. aureus UC-76 and 0.5 µg/mL (≈ 1.2 µM) in the experiment on S pyogenes C203.
The like results for `Cc1c(N2CC[C@@H]([C@@H](N)CC#N)C2)c(F)cc2c(=O)[nH]c(=O)n(C3CC3)c12` (single isomer, unassigned) [drawing 408] were, in that order, 0.5 µg/mL (≈ 1.35 µM), 0.125 µg/mL (≈ 0.337 µM), 0.25 µg/mL (≈ 0.673 µM) and 0.125 µg/mL (≈ 0.337 µM).
For `Cc1c(N2CC[C@@H](C(NCCC#N)c3ncco3)C2)c(F)cc2c(=O)n(N)c(=O)n(C3CC3)c12` (some centres unmarked) [drawing 416], in that order: 32 µg/mL (≈ 68.4 µM), 8 µg/mL (≈ 17.1 µM), 8 µg/mL (≈ 17.1 µM) and 8 µg/mL (≈ 17.1 µM).
Consider `COc1c(N2C[C@@H]3CCC(NCCC#N)[C@@H]3C2)c(F)cc2c(=O)n(N)c(=O)n(C3CC3)c12` (some centres unmarked) [drawing 415], for which the MIC was 4 µg/mL (≈ 9.04 µM) in the experiment with E. faecalis MGH-2, 0.5 µg/mL (≈ 1.13 µM) in the experiment with S. pneumo SV-1, 1 µg/mL (≈ 2.26 µM) with S. aureus UC-76 and 1 µg/mL (≈ 2.26 µM) with S pyogenes C203.
On to `COc1c(N2CC(CNCCC#N)C3(CC3)C2)c(F)cc2c(=O)n(N)c(=O)n(C3CC3)c12` (centres unmarked) [drawing 421], for which the MIC amounted to 1 µg/mL (≈ 2.26 µM) in the experiment on E. faecalis MGH-2, 0.06 µg/mL (≈ 0.136 µM) in the experiment with S. pneumo SV-1, 0.25 µg/mL (≈ 0.565 µM) in the experiment with S. aureus UC-76 and 0.06 µg/mL (≈ 0.136 µM) in the experiment with S pyogenes C203.
Take `Cc1c(N2CCC(C(N)CC#N)C2)c(F)cc2c(=O)n(N)c(=O)n(C3CC3)c12` (centres unmarked) [drawing 405]: the MIC is 0.5 µg/mL (≈ 1.29 µM) in the experiment on E. faecalis MGH-2, 0.125 µg/mL (≈ 0.323 µM) in the experiment on S. pneumo SV-1, 0.25 µg/mL (≈ 0.647 µM) in the experiment with S. aureus UC-76 and 0.125 µg/mL (≈ 0.323 µM) in the experiment on S pyogenes C203.
In the case of `COc1c(N2CC[C@@H]([C@H](C)NCCC#N)C2)c(F)cc2c(=O)n(N)c(=O)n(C3CC3)c12` (single isomer, unassigned) [drawing 400], the MIC in the experiment on H. influenzae HI-3542 is 16 µg/mL (≈ 37.2 µM); in the experiment with M. catarrhalis BC-3531, 16 µg/mL (≈ 37.2 µM); in the experiment on E. coli 2026 it was 64 µg/mL (≈ 149 µM).
`COc1c(N2CC(CNCCC#N)C3(CC3)C2)c(F)cc2c(=O)n(N)c(=O)n(C3CC3)c12` (centres unmarked) [drawing 404]: the MIC in the experiment on H. influenzae HI-3542 was determined as 1 µg/mL (≈ 2.26 µM); with M. catarrhalis BC-3531, 8 µg/mL (≈ 18.1 µM); in the experiment with E. coli 2026, 2 µg/mL (≈ 4.52 µM).
